Reference: US11964988B2, “Fused heterocyclic compounds as RET kinase inhibitors” (ARRAY BIOPHARMA INC., priority 2018, dated 2024)
Residue numbers refer to the chain shown, from its start. Like-named read-outs stand apart in the source and are kept apart here.

Columns and labels:
RET kinase V804M = RET kinase V804M (Homo sapiens, UniProt P07949, V804M); assay: RET Enzyme Assay (CisBio HTRF KinEASE-TK), V804M; assay type: biochemical; settings: read-out: RET V804M Enz FRET IC50
RET kinase Wild Type [1] = target: T1, RET kinase Wild Type (Homo sapiens, UniProt P07949);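 note: HTRF kinase activity assay on RET enzyme, 1 h reaction at 22 °C, dual-wavelength readout as percent of control, DMSO-only wells as 100%, pre-quenched reactions as 0%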
Description: (§2) The potency of compounds inhibiting several different RET kinase forms (Wild Type, V804M, G810R, & G810S) were determined using CisBio's HTRF® KinEASE™-TK assay technology. […] After a 1 hour incubation at 22° C., the extent of reaction was determined using a PerkinElmer EnVision multimode plate reader via HTRF dual wavelength detection, and the percent of control (POC) was calculated using a ratiometric emission factor. One hundred POC was determined using DMSO only samples (no compound present), and 0 POC was determined using pre-quenched control reactions.

G810R mutant RET kinase [2] = target: T2, G810R mutant RET kinase (Homo sapiens, UniProt P07949, G810R);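 note: HTRF KinEASE-TK enzymatic assay with 1 nM recombinant RET G810R, 1 h at 22 °C, dual-wavelength ratiometric readout, 100% control without compound, 0% from pre-quenched reactions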
G810S mutant RET kinase [3] = target: T3, G810S mutant RET kinase (Homo sapiens, UniProt P07949, G810S);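 note: HTRF KinEASE-TK kinase assay with recombinant enzyme, 1 h at 22 °C, dual-wavelength ratiometric read-out, percent of control (DMSO-only = 100, pre-quenched reaction = 0)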
Description: as §2
(§3) The potency of a compound inhibiting G810R or G810S mutant RET kinase was determined using CisBio's HTRF® KinEASE™-TK assay technology. The assays contained G810R or G810S mutant RET produced at Array Biopharma, Inc. (1 nM enzyme). […] After a 1-h incubation at 22° C., the extent of reaction was determined using a PerkinElmer EnVision multimode plate reader via HTRF dual wavelength detection, and the percent of control (POC) was calculated using a ratiometric emission factor. One hundred POC was determined using no test compounds, and 0 POC was determined using pre-quenched control reactions.

[4] = target: T4, HEK-293 cells expressing a Kif5b-RET fusion protein (Homo sapiens, UniProt P07949); assay: RET Cell Assay (phospho-RET Tyr1062); assay type: cell-based; settings: HEK-293 Kif5b-RET, 1 hour incubation, phospho-RET normalized to GAPDH; read-out: KIF5B-RET pTYR1062 Cell IC50
T4 construct: KIF5B (N-terminal portion incl. coiled-coil); expressed in transfected cells; host or cells: HEK-293; the other entry of the earlier key: KIF5B (P33176, Kinesin-1 heavy chain)
T4 sequence (P07949 713-1063 limits assumed): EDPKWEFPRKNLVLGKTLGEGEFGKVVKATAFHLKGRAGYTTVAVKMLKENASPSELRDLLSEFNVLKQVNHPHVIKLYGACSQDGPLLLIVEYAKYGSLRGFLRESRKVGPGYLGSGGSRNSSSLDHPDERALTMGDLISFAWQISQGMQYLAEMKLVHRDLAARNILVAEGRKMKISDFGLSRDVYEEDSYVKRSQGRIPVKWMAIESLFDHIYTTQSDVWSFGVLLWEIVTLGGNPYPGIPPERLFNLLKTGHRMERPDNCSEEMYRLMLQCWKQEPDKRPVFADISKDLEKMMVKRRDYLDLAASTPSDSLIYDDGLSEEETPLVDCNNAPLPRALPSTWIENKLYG
Procedure, shortened: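 Kif5b-RET HEK-293 cells treated 1 hour with compound in DMEM (0.5% DMSO final), then fixed and immunostained for phospho-RET Tyr1062, normalized to GAPDH by infrared fluorescence. IC50 where the 4-parameter logistic fit of POC crosses 50.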

[5] = target: T5, HEK-293 cells expressing a G810R mutant RET Kif5b-RET fusion protein (Homo sapiens, UniProt P07949, G810R); assay: RET G810R Mutant Cell Assay (phospho-RET Tyr1062); assay type: cell-based; settings: HEK-293 Kif5b-RET G810R, 1 hour incubation, phospho-RET normalized to GAPDH
T5 construct: KIF5B (N-terminal portion incl. coiled-coil); expressed in transfected cells; host or cells: HEK-293; the other entry of the earlier key: KIF5B (P33176, Kinesin-1 heavy chain)
T5 sequence (P07949 713-1063 G810R limits assumed): T4 sequence (P07949 713-1063 limits assumed) with G98R
Procedure, shortened: (§1)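 Engineered HEK-293 cells were treated 1 h with compound in DMEM, 0.5% DMSO final, then fixed, permeabilized and immunostained for phospho-RET Tyr1062 and GAPDH. In-cell fluorescence pRET signal was normalized to GAPDH; IC50 taken from a 4-parameter logistic fit of percent of control at 50 POC.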

[6] = target: T6, HEK-293 cells expressing a G810S mutant RET Kif5b-RET fusion protein (Homo sapiens, UniProt P07949, G810S); assay: RET G810S Mutant Cell Assay (phospho-RET Tyr1062); assay type: cell-based; settings: HEK-293 Kif5b-RET G810S, 1 hour incubation, phospho-RET normalized to GAPDH
T6 construct: KIF5B (N-terminal portion incl. coiled-coil); expressed in transfected cells; host or cells: HEK-293
T6 sequence (P07949 713-1063 G810S limits assumed): T4 sequence (P07949 713-1063 limits assumed) with G98S
Procedure, shortened: as §1

RET kinase Wild Type [7] = target: T1, RET kinase Wild Type; assay: biochemical
Description: as §2

G810R mutant RET kinase [8] = target: T2, G810R mutant RET kinase; assay: biochemical
G810S mutant RET kinase [9] = target: T3, G810S mutant RET kinase; assay: biochemical
Description: as §2, §3

[10] = V804M RET, 1 mM ATP, averaged IC50

T1 sequence (P07949 29-1114): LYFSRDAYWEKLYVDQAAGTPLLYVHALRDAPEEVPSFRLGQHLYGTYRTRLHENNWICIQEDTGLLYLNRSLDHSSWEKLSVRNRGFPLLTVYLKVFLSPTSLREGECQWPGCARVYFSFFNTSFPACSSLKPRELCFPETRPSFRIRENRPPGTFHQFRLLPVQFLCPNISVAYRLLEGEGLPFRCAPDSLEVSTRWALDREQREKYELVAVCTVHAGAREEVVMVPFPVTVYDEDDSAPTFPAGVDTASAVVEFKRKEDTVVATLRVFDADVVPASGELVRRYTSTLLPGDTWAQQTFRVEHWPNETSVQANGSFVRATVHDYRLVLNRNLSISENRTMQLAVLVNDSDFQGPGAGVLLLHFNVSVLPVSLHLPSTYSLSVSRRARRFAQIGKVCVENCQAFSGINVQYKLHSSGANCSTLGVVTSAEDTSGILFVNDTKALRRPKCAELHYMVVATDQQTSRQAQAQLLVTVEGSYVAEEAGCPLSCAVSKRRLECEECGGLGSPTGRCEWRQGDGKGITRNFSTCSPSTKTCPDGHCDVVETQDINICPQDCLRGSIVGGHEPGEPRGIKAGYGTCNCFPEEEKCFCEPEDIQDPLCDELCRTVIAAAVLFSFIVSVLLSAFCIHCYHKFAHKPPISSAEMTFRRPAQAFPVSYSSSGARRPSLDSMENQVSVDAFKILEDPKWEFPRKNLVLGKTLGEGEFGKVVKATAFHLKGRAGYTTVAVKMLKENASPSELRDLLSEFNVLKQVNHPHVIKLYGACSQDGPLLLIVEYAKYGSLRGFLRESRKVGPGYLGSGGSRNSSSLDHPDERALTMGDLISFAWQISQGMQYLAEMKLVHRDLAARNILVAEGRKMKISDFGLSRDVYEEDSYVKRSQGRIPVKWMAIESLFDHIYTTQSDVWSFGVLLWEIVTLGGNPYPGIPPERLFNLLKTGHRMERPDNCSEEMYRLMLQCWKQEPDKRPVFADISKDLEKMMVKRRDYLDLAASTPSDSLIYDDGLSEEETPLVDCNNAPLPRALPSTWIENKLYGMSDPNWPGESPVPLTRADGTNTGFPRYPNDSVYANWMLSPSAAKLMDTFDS
T2 sequence (P07949 29-1114 G810R): as the sequence (P07949 29-1114) above, with G782R counted along it
T3 sequence (P07949 29-1114 G810S): as the sequence (P07949 29-1114) above, with G782S counted along it
Chain of RET kinase V804M (P07949 29-1114 V804M): as the sequence (P07949 29-1114) above, with V776M counted along it

Compound	IC50 (RET kinase V804M; [10]) [nM]	IC50 (RET kinase Wild Type [1]) [nM]	IC50 (G810R mutant RET kinase [2]) [nM]	IC50 (G810S mutant RET kinase [3]) [nM]	IC50 [4] [nM]	IC50 [5] [nM]	IC50 (RET kinase V804M) [nM]	IC50 [6] [nM]	IC50 (RET kinase Wild Type [7]) [nM]	IC50 (G810R mutant RET kinase [8]) [nM]	IC50 (G810S mutant RET kinase [9]) [nM]
C[C@H](n1c2c(c3c(N)ncnc31)-c1noc(C3CC3)c1[C@H](O)CC2)C(F)(F)F (single isomer, unassigned) [Example 145]	31	20	85	101	73	120					
Nc1ncnc2c1c1c(n2C2CCNC2)CCC(O)c2c-1noc2C1CC1 (stereo not drawn) [Example 133, (Trans)-11-amino-3-cyclopropyl-7-(pyrrolidin-3-yl)-4,5,6,7-tetrahydroisoxazolo[4″,3″:6′,7′]cyclohepta[1′,2′:4,5]pyrrolo[2,3-d]pyrimidin-4-ol 2,2,2-trifluoroacetate]	6200	2640	6140	3400							
CC(C)n1c2c(c3c(N)ncnc31)-c1noc(C3CC3)c1S(=O)(=O)CC2 [Example 23, 11-amino-3-cyclopropyl-7-isopropyl-6,7-dihydro-5H-isoxazolo[4″,3″:2′,3′]thiepino[4′,5′:4,5]pyrrolo[2,3-d]pyrimidine 4,4-dioxide 2,2,2-trifluoroacetate]					20	133	189	107	18	63	54

Now from value to compound:

IC50 (RET kinase V804M; [10]) [nM]	IC50 (RET kinase Wild Type [1]) [nM]	IC50 (G810R mutant RET kinase [2]) [nM]	IC50 (G810S mutant RET kinase [3]) [nM]	IC50 [4] [nM]	IC50 [5] [nM]	IC50 (RET kinase V804M) [nM]	IC50 [6] [nM]	IC50 (RET kinase Wild Type [7]) [nM]	IC50 (G810R mutant RET kinase [8]) [nM]	IC50 (G810S mutant RET kinase [9]) [nM]	Compound
505	124	157	425								COC(=O)[C@H]1C[C@H](n2c3c(c4c(N)ncnc42)-c2noc(C4CC4)c2C(=O)CC3)C1 [Example 142, Methyl (1r,3r)-3-(11-amino-3-cyclopropyl-4-oxo-5,6-dihydroisoxazolo[4″,3″:6′,7′]cyclohepta[1′,2′:4,5]pyrrolo[2,3-d]pyrimidin-7(4H)-yl)cyclobutane-1-carboxylate]
1940	1710	4460	2320								Nc1ncnc2c1c1c(n2C2CCNC2)CCC(O)c2c-1noc2C1CC1 (stereo not drawn) [Example 132, (Cis)-11-amino-3-cyclopropyl-7-(pyrrolidin-3-yl)-4,5,6,7-tetrahydroisoxazolo[4″,3″:6′,7]cyclohepta[1′,2′:4,5]pyrrolo[2,3-d]pyrimidin-4-ol 2,2,2-trifluoroacetate]
